Reference: paper PMC8953266, “The Transthyretin/Oleuropein Aglycone Complex: A New Tool against TTR Amyloidosis” (Pharmaceuticals, 2022)

Tests used:
transthyretin (wt-TTR) = target: T1, transthyretin (wt-TTR) (Homo sapiens, UniProt P02766); experiment: ligand fluorescence titration (blue shift of OleA emission, fitted to a binding equilibrium); urea unfolding shows stabilization
T1 construct: recombinant wt-TTR, homotetramer

transthyretin (L55P-TTR) = target: T2, transthyretin (L55P-TTR) (Homo sapiens, UniProt P02766, L75P); experiment: ligand fluorescence titration (blue shift of OleA emission); noisier, and no stabilization in urea unfolding; format: binding
T2 construct: recombinant L55P-TTR, homotetramer

## C/C=C1/C(O)OC=C(C(=O)OC)[C@H]1CC(=O)OCCc1ccc(O)c(O)c1 (mixture of isomers) [OleA, oleuropein aglycone]
Transthyretin (wt-TTR)
  Kd: 3.23 ± 0.32 µM
Transthyretin (L55P-TTR)
  Kd: 3.12 ± 0.62 µM
